Patent US8012484B2, “Method of treating ischemia reperfusion injury by inhibiting NKT cell activity” (University of Virginia Patent Foundation, priority 2007, dated 2011)

Tests used:
[1] = tested on: invariant NKT cells in a mixed splenocyte culture; assay: α-Gal-Cer stimulated IFN-γ production by iNKT cells in mixed splenocyte culture; format: cell-based, mice; conditions: for effect of antagonist on ATL146e inhibition of α-Gal-Cer mediated IFN-γ production: 1 μM α-Gal-Cer
Description: (§1) FIGS. 5A-E. Inhibition by ATL146e of IFN-γ production by activated NKT cells. A) Purified NKT cells (200,000 per well) were incubated on immobilized anti-CD3 mAb in the presence of vehicle or 100 nM ATL146e. Supernatants were collected after 24 hours and IFN-γ concentrations were measured by ELISA. Data are shown as the mean±SEM from three independent experiments performed in triplicate. *p<0.01 vs. vehicle control as assessed by unpaired t-test B) Bulk splenocytes (300,000 cells per well) were incubated with 1 U/mL ADA and 1 nM-1 μM α-galactosylceramide in the presence of 100 nM ATL146e or vehicle. C) Bulk splenocytes (300,000 cells per well) were incubated with 1 U/mL ADA and 1 μM α-galactosylceramide in the presence or absence of varying concentrations of ATL146e±100 nM ZM241385 or vehicle. D) Bulk splenocytes (300,000 cells per well) were incubated with 1 U/mL ADA and 1 μM α-galactosylceramide in the presence or absence of 1 nM ATL146e±1 μM 8-SPT or vehicle. E) Purified CD4^+NK1.1^+ T cells (150,000 cells per well) were incubated with lymphocyte and NK cell-deficient splenocytes (300,000 cells per well), 1 U/mL ADA and 1 μM α-galactosylceramide in the presence or absence of 100 nM ATL146e±100 nM ZM241385. NK1.1-expressing cells were depleted from RAG 1 KO splenocytes via FACSVantage SE Turbo Sorter. Supernatants were collected after 48 hours, and IFN-γ concentrations were determined by ELISA. Data shown are from a single experiment performed in triplicate, representative of three independent experiments; error bars indicate SEM. (B-E)*p<0.01 vs. vehicle control as assessed by one way ANOVA followed by Dunnetts multiple comparison test.
(§2) Cells were washed and resuspended in RPMI 1640 medium supplemented with 10% heat-inactivated fetal bovine serum and 1% antibiotic-antimycotic (Gibco, Carlsbad, Calif.). In vitro activation of NKT cells was achieved by co-culture for 48 hours with splenocytes and 1 nM-1 μM α-Gal-Cer (KRN7000; from Kumi Miyayama of Kirin Brewery Company, Tokyo) at 37° C. in 5% CO2. Alternately, NKT cells were activated by incubation for 24 hours in 96 well plates coated with 2-10 μg/mL immobilized anti-CD3 mAb (BD Biosciences) at 37° C. in 5% CO2. All in vitro T cell activation experiments were performed with the addition of 1 U/mL adenosine deaminase (ADA) (Roche, Indianapolis, Ind.) to remove endogenous adenosine produced by the cells that may partially activate the A2AR. […]
(§3) IFN-γ concentrations in cell culture supernatants or serum samples were measured by ELISA according to the manufacturer's protocol (e-Bioscience).

[2] = tested on: RAG 1 KO mice reconstituted with CD4+NK1.1+ NKT cells; assay: Hepatic IRI in RAG 1 KO mice after adoptive transfer of NKT cells: serum ALT; format: in vivo
Description: (§4) Mice were anesthetized by intraperitoneal injection of ketamine (100 mg/kg) and xylazine (10 mg/kg). Ambient temperature was controlled in the range of 24-26° C. and mice were placed on a 37° heating pad. Core body temperature of selected mice was monitored with a TH-8 Thermalert monitoring thermometer (Physitemp) and ranged from 35-36°. After midline laparotomy, a microaneurysm clip was applied to the hepatic triad above the bifurcation to clamp the flow of the hepatic artery, portal vein, and bile duct. After superfusion of the liver with warm saline, the peritoneum was closed during 72 min of ischemia. The peritoneum was then reopened and the microaneurysm clip was removed. For select experiments, animals received an i.p. loading dose (1 μg/kg) of ATL146e or vehicle control immediately after the onset of reperfusion, and a primed Alzet osmotic minipump was implanted intraperitoneally. […]
(§5) Following liver ischemia, blood was collected via retro-orbital bleed 24 hours after the initiation of reperfusion. Serum ALT was measured with a transaminase kit according to the manufacture's protocol (Pointe Scientific, Canton, Mich.). […] The plate was placed in a spectrophotometer preheated to 37° C., and the absorbance at […] was measured every minute for 10 minutes. The slope of the linear portion of the change in absorbance over time was used to calculate IU/L of ALT.

[3] = tested on: CD4+ NK1.1+ NKT cells; assay: IFN-γ production by purified NKT cells activated on immobilized anti-CD3 mAb; format: cell-based, mice; conditions: Mus musculus, 100 nM, 24 hours of incubation, read-out: inhibition of TCR-stimulated IFN-γ production
Description: Wild-type, A2AR KO, or IFN-γ KO C57BL/6 mice were sacrificed and spleens removed. Splenocytes were passed through a 40 μm nylon cell strainer (BD Biosciences, San Jose, Calif.) and collected in phosphate buffered saline. Red blood cells were lysed and CD4^+ T lymphocytes were isolated with mouse CD4 subset column kits (R and D Systems, Minneapolis, Minn.) resulting in >92% pure CD4^+ T cells. The column-purified cells were stained for 30 minutes with FITC-conjugated anti-mouse CD4 and PE-conjugated anti-mouse NK1.1 (eBioscience, San Diego, Calif.) and sorted using a FACSVantage SE Turbo Sorter (Becton Dickinson, Franklin Lakes, N.J.) to produce cell populations of ≧99.8% pure CD4^+NK1.1^+ T lymphocytes.
as §2, with “CO2.” for “CO2. All in vitro T cell activation experiments were performed with the addition of 1 U/mL adenosine deaminase (ADA) (Roche, Indianapolis, Ind.) to remove endogenous adenosine produced by the cells that may partially activate the A2AR.”
as §3

[4] = tested on: purified CD4+ NK1.1+ NKT cells; assay: IFN-γ release from purified NKT cells activated with α-Gal-Cer in the presence of NK cell-depleted RAG 1 KO splenocytes; format: cell-based, mice; conditions: 1 μM α-Gal-Cer
Description: as §1, with “E) Purified CD4^+NK1.1^+ T cells (150,000 cells per well) were incubated with lymphocyte and NK cell-deficient splenocytes (300,000 cells per well), 1 U/mL ADA and 1 μM α-galactosylceramide in the presence or absence of 100 nM ATL146e±100 nM ZM241385. NK1.1-expressing cells were depleted from RAG 1 KO splenocytes via FACSVantage SE Turbo Sorter.” left out, “Data shown are from a single experiment performed in triplicate, representative of three independent experiments; error bars indicate SEM.” left out, “test. […]” for “test.”
as §3

[5] = tested on: NKT cells isolated from post-ischemic mouse liver and liver-draining lymph nodes; assay: Intracellular IFN-γ in NKT cells from post-ischemic liver after 2 hours of reperfusion (FACS); format: in vivo, mice; conditions: treatment at the initiation of reperfusion
Description: as §4, with “intraperitoneally. ATL146e (10 ng/kg/min) or vehicle was placed in the pumps and delivered until the experiment was terminated. The peritoneum was sutured and the surgical wound was closed with metal staples.” for “intraperitoneally.”
Intracellular IFN-γ was detected in liver NKT cells by FACS analysis using Fix and Perm Cell Permeabilization Reagents according to the manufacturer's protocol (Caltag Laboratories, Carlsbad, Calif.).

[6] = tested on: IFN-γ; assay: Serum/plasma IFN-γ 24 hours after reperfusion (ELISA); format: in vivo, mice; conditions: 24 hours after reperfusion injury
Description: as §4, with “intraperitoneally. ATL146e (10 ng/kg/min) or vehicle was placed in the pumps and delivered until the experiment was terminated. The peritoneum was sutured and the surgical wound was closed with metal staples. Animals were sacrificed by cervical dislocation at various time points after the initiation of reperfusion and blood was collected via retro-orbital bleed.” for “intraperitoneally.”
as §3

[7] = tested on: hepatic IRI in WT C57BL/6 mice; assay: Hepatic ischemia reperfusion injury (72 min ischemia, 24 h reperfusion): serum ALT and necrotic area; format: in vivo; conditions: 72 min hepatic ischemia
Description: as §4, with “removed.” for “removed. For select experiments, animals received an i.p. loading dose (1 μg/kg) of ATL146e or vehicle control immediately after the onset of reperfusion, and a primed Alzet osmotic minipump was implanted intraperitoneally.”
as §5
Mice were sacrificed and livers perfused with saline via the portal vein at various times after the initiation of reperfusion. […] Necrotic area was quantified using Adobe Photoshop software.

Q: For `Cn1c(=O)c2[nH]c(-c3ccc(S(=O)(=O)O)cc3)nc2n(C)c1=O` [8-SPT, 8-sulfophenyltheophylline], which “effect of antagonist on ATL146e inhibition of α-Gal-Cer mediated IFN-γ production” value ([1]; 1 μM antagonist, 1 nM ATL146e) is on record?
A: blocks the inhibitory effects of ATL146e

Q: `CCNC(=O)C1OC(n2cnc3c(N)nc(C#CCC4CCC(C(=O)OC)CC4)nc32)C(O)C1O` (stereo not shown) [ATL146e, 4-{3-[6-Amino-9-(5-ethylcarbamoyl-3,4-dihydroxy-tetrahydro-furan-2-yl)-9H-purin-2-yl]-prop-2-ynyl}-cyclohexanecarboxylic acid methyl ester] was tested. Which “protection from tissue damage (serum ALT)” value ([2]; RAG 1 KO mice, 250,000 NKT cells from A2AR KO mice transferred) did it give?
A: abolishes the effect of agonist administration

Q: And the “protection from tissue damage (serum ALT)” value ([2]; RAG 1 KO mice, 250,000 WT NKT cells transferred)?
A: protects from tissue damage only when WT cells are transferred

Q: What about the inhibition at 0.1 µM [3] of the same molecule?
A: ~73%

Q: And the “reduction of IFN-γ derived from NKT cell activation” value ([4]; 100 nM ATL146e, lymphocyte-deficient NK cell-depleted RAG 1 KO splenocytes as APCs)?
A: 93%

Q: And the “increase in intracellular IFN-γ expression of NKT cells (activation)” value [5]?
A: significantly inhibits this activation

Q: And the “inhibition of α-Gal-Cer stimulated IFN-γ production (in words)” value ([1]; 100 nM, 1 nM-1 μM α-Gal-Cer, mixed splenocyte culture, 48 hours)?
A: inhibited competently

Q: What about the EC50 ([1]; Mus musculus, NKT, stimulated by 1 μM α-Gal-Cer, mixed splenocytes, 48 hours, read-out: EC50 of inhibition of iNKT-mediated production of IFN-γ) of the same molecule?
A: 0.58 nM

Q: And the “elevation of plasma IFN-γ concentrations” value [6]?
A: diminished this elevation to a similar extent

Q: And the “reduction in serum ALT levels versus vehicle treated controls” value ([7]; 24 hours after reperfusion)?
A: approximately 58%

Q: And the necrotic area ([7]; 24 hours of reperfusion, H and E staining, vehicle 79.3±3%)?
A: 6.1±0.8%

Q: With `Nc1nc(NCCc2ccc(O)cc2)nc2nc(-c3ccco3)nn12` [ZM241385, 4-(2-[7-amino-2-[2-furyl][1,2,4]triazolo[2,3-a][1,3,5]triazin-5-yl-amino]ethyl)phenol] as the molecule, how does the “effect of antagonist on ATL146e reduction of IFN-γ” value ([4]; co-treatment with 100 nM antagonist) read?
A: this effect was blocked

Q: And the “effect of antagonist on ATL146e inhibition of α-Gal-Cer mediated IFN-γ production” value ([1]; 100 nM antagonist, varying concentrations of ATL146e)?
A: causes a right shift in the ATL146e dose response curve
